Values quoted from earlier work, collected in patent US8883831B2, “Compositions and methods for minimizing or reversing agonist-induced desensitization” (PharmoRx Therapeutics, Inc., priority 2008, dated 2014).

Key:
[1] = target: pentapeptide segment at the carboxy terminal of Filamin A (Homo sapiens, UniProt P21333); details: read-out: binding affinity
[2] = system: chronic pain model in intact rodents; details: ultra-low dose, absence of exogenously administered opioid agonists

Chain of pentapeptide segment at the carboxy terminal of Filamin A (P21333 whole entry): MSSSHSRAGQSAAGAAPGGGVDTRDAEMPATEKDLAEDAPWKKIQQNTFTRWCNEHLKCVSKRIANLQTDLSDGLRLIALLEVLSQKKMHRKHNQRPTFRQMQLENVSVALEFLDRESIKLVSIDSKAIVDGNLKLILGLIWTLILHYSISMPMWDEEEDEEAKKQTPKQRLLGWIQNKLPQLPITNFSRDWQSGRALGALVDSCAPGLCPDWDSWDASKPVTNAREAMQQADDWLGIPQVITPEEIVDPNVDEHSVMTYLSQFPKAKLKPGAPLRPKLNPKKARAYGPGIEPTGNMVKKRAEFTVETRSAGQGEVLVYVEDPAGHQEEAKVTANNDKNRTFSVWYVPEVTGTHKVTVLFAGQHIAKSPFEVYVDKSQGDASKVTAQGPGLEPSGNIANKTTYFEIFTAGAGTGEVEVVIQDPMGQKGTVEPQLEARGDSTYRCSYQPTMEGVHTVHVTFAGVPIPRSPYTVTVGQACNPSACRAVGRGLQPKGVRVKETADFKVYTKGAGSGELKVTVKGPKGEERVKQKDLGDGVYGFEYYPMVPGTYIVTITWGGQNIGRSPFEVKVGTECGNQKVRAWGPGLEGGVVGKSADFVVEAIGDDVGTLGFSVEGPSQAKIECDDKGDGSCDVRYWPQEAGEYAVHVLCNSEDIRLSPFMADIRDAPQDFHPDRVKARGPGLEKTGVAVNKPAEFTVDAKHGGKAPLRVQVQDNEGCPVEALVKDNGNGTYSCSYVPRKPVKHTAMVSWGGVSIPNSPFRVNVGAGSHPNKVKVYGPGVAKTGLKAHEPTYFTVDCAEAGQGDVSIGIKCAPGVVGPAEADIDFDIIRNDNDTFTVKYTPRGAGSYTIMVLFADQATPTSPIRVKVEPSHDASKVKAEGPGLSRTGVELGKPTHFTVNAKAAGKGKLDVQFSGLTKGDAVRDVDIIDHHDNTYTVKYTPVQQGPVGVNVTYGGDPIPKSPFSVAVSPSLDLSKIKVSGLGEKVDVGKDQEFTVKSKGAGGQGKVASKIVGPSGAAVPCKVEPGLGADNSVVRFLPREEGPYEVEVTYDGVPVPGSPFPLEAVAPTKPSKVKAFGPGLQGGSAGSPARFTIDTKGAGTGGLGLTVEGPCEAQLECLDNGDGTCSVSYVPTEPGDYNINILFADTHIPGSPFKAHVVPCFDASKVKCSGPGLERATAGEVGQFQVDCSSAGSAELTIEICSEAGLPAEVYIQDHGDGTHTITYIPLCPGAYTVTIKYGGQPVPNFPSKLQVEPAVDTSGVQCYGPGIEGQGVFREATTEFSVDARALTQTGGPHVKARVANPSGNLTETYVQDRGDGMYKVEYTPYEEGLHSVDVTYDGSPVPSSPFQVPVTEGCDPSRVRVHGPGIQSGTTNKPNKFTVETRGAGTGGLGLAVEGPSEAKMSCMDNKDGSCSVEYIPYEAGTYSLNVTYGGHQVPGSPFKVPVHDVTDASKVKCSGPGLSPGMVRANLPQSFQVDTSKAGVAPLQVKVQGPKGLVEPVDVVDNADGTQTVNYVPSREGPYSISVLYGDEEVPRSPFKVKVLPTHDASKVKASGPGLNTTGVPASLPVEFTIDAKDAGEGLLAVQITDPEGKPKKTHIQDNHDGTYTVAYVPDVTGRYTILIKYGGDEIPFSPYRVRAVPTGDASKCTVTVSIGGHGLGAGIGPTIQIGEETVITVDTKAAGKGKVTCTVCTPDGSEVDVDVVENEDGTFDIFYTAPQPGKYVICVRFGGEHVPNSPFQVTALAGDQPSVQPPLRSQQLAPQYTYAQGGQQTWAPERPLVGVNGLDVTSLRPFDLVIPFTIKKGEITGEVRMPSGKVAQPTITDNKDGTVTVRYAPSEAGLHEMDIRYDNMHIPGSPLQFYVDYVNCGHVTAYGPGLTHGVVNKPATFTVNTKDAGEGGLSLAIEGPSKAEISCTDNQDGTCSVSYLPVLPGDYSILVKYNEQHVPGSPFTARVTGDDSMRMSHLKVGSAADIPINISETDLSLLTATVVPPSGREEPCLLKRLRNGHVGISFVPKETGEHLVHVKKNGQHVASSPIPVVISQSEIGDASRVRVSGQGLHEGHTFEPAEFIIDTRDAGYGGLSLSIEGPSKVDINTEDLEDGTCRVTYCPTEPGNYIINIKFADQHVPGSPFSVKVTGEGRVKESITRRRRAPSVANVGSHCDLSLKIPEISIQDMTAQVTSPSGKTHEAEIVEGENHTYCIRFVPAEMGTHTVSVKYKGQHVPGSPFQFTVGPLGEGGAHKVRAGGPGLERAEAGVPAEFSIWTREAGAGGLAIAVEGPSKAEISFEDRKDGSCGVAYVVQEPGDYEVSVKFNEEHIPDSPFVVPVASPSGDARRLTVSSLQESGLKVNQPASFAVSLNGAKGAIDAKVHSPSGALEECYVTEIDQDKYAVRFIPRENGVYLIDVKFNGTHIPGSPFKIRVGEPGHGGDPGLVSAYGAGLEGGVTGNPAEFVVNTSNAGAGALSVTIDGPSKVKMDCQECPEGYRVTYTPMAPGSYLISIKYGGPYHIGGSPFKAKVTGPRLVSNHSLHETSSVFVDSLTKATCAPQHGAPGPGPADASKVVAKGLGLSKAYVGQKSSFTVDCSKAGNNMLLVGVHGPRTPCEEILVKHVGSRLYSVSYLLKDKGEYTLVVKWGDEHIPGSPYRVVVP

SMILES: O=C1CC[C@@]2(O)[C@H]3Cc4ccc(O)c5c4[C@@]2(CCN3CC2CC2)[C@H]1O5 [naltrexone]
- Kd [1]: 4 pM
- effect in chronic pain model [2]: no effect
